Results from paper PMC7792585, “Trospium Chloride Transport by Mouse Drug Carriers of the Slc22 and Slc47 Families” (International Journal of Molecular Sciences, 2020).

Key:
mMate2 = target: T1, mMate2 (Mus musculus, UniProt Q3V050); assay: inhibition of [3H]MPP+ uptake in mMate2-HEK293 cells at […]; type: cell-based
T1 construct: gene Slc47a2; full open reading frame
T1 sequence (Q3V050 1-573): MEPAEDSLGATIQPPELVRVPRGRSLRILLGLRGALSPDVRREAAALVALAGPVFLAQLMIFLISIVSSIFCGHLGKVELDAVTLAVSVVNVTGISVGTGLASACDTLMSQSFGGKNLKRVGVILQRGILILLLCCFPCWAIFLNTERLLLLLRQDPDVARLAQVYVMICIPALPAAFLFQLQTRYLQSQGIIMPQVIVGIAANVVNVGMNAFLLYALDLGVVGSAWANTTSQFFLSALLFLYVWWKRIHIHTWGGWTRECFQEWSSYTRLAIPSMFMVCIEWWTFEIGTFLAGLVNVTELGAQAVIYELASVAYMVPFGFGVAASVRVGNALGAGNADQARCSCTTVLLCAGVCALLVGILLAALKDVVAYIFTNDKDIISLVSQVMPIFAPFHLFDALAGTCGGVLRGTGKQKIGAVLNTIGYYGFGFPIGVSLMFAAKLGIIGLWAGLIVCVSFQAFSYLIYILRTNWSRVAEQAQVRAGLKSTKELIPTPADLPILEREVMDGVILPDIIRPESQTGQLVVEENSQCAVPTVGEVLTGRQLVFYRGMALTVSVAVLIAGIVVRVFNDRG

[1] = substrate: O=C(O[C@H]1C[C@H]2CC[C@@H](C1)[N+]21CCCC1)C(O)(c1ccccc1)c1ccccc1; assay: [3H]trospium uptake in stably transfected HEK293 cells, Michaelis-Menten (Km); type: cell-based, Mus musculus
[2] = substrate: C[n+]1ccc(-c2ccccc2)cc1; assay: cells, lysate or membranes

Nc1nc2c(ncn2COCCO)c(=O)[nH]1 [acyclovir]
inhibition of [3H]MPP+ uptake in mMate2-HEK293 cells at 10 and 100 μM (mMate2): mMate2 was significantly inhibited by tetraethylammonium (TEA), topotecan, acyclovir, and levofloxacin

CC[N+](CC)(CC)CC [tetraethylammonium]
inhibition of [3H]MPP+ uptake in mMate2-HEK293 cells at 10 and 100 μM (mMate2): mMate2 was significantly inhibited by tetraethylammonium (TEA), topotecan, acyclovir, and levofloxacin

CC[C@@]1(O)C(=O)OCc2c1cc1n(c2=O)Cc2cc3c(CN(C)C)c(O)ccc3nc2-1 [topotecan]
inhibition of [3H]MPP+ uptake in mMate2-HEK293 cells at 10 and 100 μM (mMate2): mMate2 was significantly inhibited by tetraethylammonium (TEA), topotecan, acyclovir, and levofloxacin

C[C@H]1COc2c(N3CCN(C)CC3)c(F)cc3c(=O)c(C(=O)O)cn1c23 [levofloxacin]
inhibition of [3H]MPP+ uptake in mMate2-HEK293 cells at 10 and 100 μM (mMate2): mMate2 was significantly inhibited by tetraethylammonium (TEA), topotecan, acyclovir, and levofloxacin

B1: mOct1 (Mus musculus) (protein)
chain: MPTVDDVLEHVGEFGWFQKQAFLLLCLISASLAPIYVGIVFLGFTPDHHCRSPGVAELSQRCGWSPAEELNYTVPGLGSAGEASFLSQCMKYEVDWNQSTLDCVDPLSSLAANRSHLPLSPCEHGWVYDTPGSSIVTEFNLVCGDAWKVDLFQSCVNLGFFLGSLVVGYIADRFGRKLCLLVTTLVTSLSGVLTAVAPDYTSMLLFRLLQGMVSKGSWVSGYTLITEFVGSGYRRTTAILYQVAFTVGLVGLAGVAYAIPDWRWLQLAVSLPTFLFLLYYWFVPESPRWLLSQKRTTQAVRIMEQIAQKNRKVPPADLKMMCLEEDASERRSPSFADLFRTPSLRKHTLILMYLWFSCAVLYQGLIMHVGATGANLYLDFFYSSLVEFPAAFIILVTIDRIGRIYPIAASNLVAGAACLLMIFIPHELHWLNVTLACLGRMGATIVLQMVCLVNAELYPTFIRNLGMMVCSALCDLGGIFTPFMVFRLMEVWQALPLILFGVLGLSAGAVTLLLPETKGVALPETIEEAENLGRRKSKAKENTIYLQVQTGKSPHT
notes: full open reading frame
Km [1]: 58.7 ± 15.5 µM

B2: mOct2 (Mus musculus) (protein)
chain: MPTVDDILEHIGEFHLFQKQTFFLLALLSGAFTPIYVGIVFLGFTPNHHCRSPGVAELSQRCGWSPAEELNYTVPGLGSAGEVSFLSQCMRYEVDWNQSTLDCVDPLSSLAANRSHLPLSPCEHGWVYDTPGSSIVTEFNLVCAHSWMLDLFQSLVNVGFFIGAVGIGYLADRFGRKFCLLVTILINAISGVLMAISPNYAWMLVFRFLQGLVSKAGWLIGYILITEFVGLGYRRTVGICYQIAFTVGLLILAGVAYALPNWRWLQFAVTLPNFCFLLYFWCIPESPRWLISQNKNAKAMKIIKHIAKKNGKSVPVSLQSLTADEDTGMKLNPSFLDLVRTPQIRKHTLILMYNWFTSSVLYQGLIMHMGLAGDNIYLDFFYSALVEFPAAFIIILTIDRIGRRYPWAVSNMVAGAACLASVFIPDDLQWLKITVACLGRMGITIAYEMVCLVNAELYPTYIRNLAVLVCSSMCDIGGIVTPFLVYRLTDIWLEFPLVVFAVVGLVAGGLVLLLPETKGKALPETIEDAEKMQRPRKKKEKRIYLQVKKAELS
notes: full open reading frame
Km [1]: 78.5 ± 25.9 µM

B3: mMate1 (Mus musculus) (protein)
chain: MERTEESAPGPGGADAASERRGLRCLLLPGFLEELRALLVLAGPAFLAQLMMFLISFISSVFCGHLGKLELDAVTLAIAVINVTGISVGHGLSSACDTLISQTYGSQNLKHVGVILQRGTLILLLCCFPCWALFINTEQILLLFRQDPDVSRLTQTYVMIFIPALPAAFLYTLQVKYLLNQGIVLPQIMTGIAANLVNALANYVFLYHLHLGVMGSALANTISQFALAIFLFLYILWRRLHQATWGGWSWECLQDWASFLRLAIPSMLMLCIEWWAYEVGSFLSGILGMVELGAQSITYELAIIVYMIPSGFSVAANVRVGNALGAGNIDQAKKSSAISLIVTELFAVTFCVLLLGCKDLVGYIFTTDRDIVALVAQVIPIYAVSHLFEGLACTCGGILRGTGNQKVGAIVNAIGYYVIGLPIGIALMFAAKLGVIGLWSGIIICTTCQTTCFLAFIARLNWKRACQQAQVHANLKVNVALNSAVSHEPAHPVCPESHGEIMMTDLEKKDETQLDQPMNQQQALPIRPKDSNKLSGKQLALRRGLLLLGVVLVLVGGILVRVYIRIE
notes: full open reading frame
Km [1]: 29.3 ± 6.7 µM

B4: mMate2 (Mus musculus) (protein)
chain: T1 sequence (Q3V050 1-573)
Km [2]: 60.0 ± 5.6 µM
